Ends that are not written are not given here.
What was measured:
[1] = Visual appearance of solution; format: physicochemical
Protocol: The remainder of the peptide suspension was diluted to an assumed concentration of 5 mg/mL and 4*1 mL samples were adjusted to pH 2, 4, 6 and 8, (see FIG. 2). All 4 vials continued to be opaque indicating limited solubility.
Approximately 16 mg/mL AnxA1 was added to milliQ® water. The resulting pH was 7.5. pH was adjusted to pH 10 in one sample using 0.1 M NaOH and to pH 2 using 0.1 M HCl in another sample, according to table 3. The appearance of the solution was noted. At pH≥7.4 the solution was clear. At pH≤7.1>2.6 solutions where unclear. At pH≤2.6 the solution was again clear. Data are summarized the Table 3, see also FIG. 5.
(§1) AnxA1 samples are dissolved in Milli Q® water or 5% mannitol in Milli Q® water to approximately 18 mg/mL and pH was adjusted using 1.0 M HCl and NaOH. After dissolution visual appearance was noted and a photograph was taken, see FIG. 6 and Table 4, and a sample was cleared by centrifugation and the concentration determined in the supernatant using UV-VIS spectroscopy.
Isotonic samples containing 1.5-1.6 mg/mL AnxA1 and a tonicity provider (isotonicity modifier) was prepared around neutral pH according to the specification in table 5. […] The samples were subjected to the ThT assay previously described, where a higher lag-time was observed when using sucrose and mannitol as tonicity providers compared to using trehalose and glucose. The data presented in Table 5 is illustrated graphically in FIG. 7.

[2] = Solubility: concentration of AnxA1 in solution/supernatant by UV-VIS; format: physicochemical
Protocol: The concentration of AnxA1 was determined using UV-VIS spectroscopy using a Nanodrop 2000c from Thermo scientific and an extinction coefficient of A280^0.1%=1.64 ml mg^−1cm^−1.
Three samples of AnxA1 was prepared at pH 9 in Milli Q® water, 0.9% NaCl (154 mM) at concentrations 3.3, 1.6 and 0.8 mg/mL, respectively. pH was adjusted by addition of 0.1 M NaOH to each of the samples and the concentration determined after centrifugation using UV-VIS spectroscopy.
as §1

Visual appearance ([1]; AnxA1 1.5 mg/mL, glucose 5 wt.%, pH 7.1): Clear
Visual appearance ([1]; AnxA1 1.6 mg/mL, mannitol 5 wt.%, pH 6.7): Clear
Visual appearance ([1]; AnxA1 1.6 mg/mL, sucrose 10 wt.%, pH 7.2): Clear
Visual appearance ([1]; AnxA1 1.6 mg/mL, trehalose 10 wt.%, pH 7.2): Clear
Visual appearance ([1]; all isotonic samples, 1.5-1.6 mg/mL AnxA1 and a tonicity provider, around neutral pH): clear solutions
Description (visual appearance) ([1]; approximately 16 mg/mL AnxA1 in milliQ water, pH 2.6-2.0): Clear solution
Description (visual appearance) ([1]; approximately 16 mg/mL AnxA1 in milliQ water, pH 3.8-3.1): Starts clearing up
Description (visual appearance) ([1]; approximately 16 mg/mL AnxA1 in milliQ water, pH 6.1-4.2): Gel-like
Description (visual appearance) ([1]; approximately 16 mg/mL AnxA1 in milliQ water, pH 6.8-6.3): Milky, turbid
Description (visual appearance) ([1]; approximately 16 mg/mL AnxA1 in milliQ water, pH 7.1): Fluffy particles
Description (visual appearance) ([1]; approximately 16 mg/mL AnxA1 in milliQ water, pH ≥7.4): clear solution
appearance of the solution ([1]; approximately 16 mg/mL AnxA1 in milliQ water, pH≤7.1>2.6): unclear
Visual appearance ([1]; approximately 18 mg/mL AnxA1, pH 2, 4 and 6, with and without 5% mannitol in Milli Q water): unclear and or viscous solution
Visual appearance ([1]; approximately 18 mg/mL AnxA1, pH 8 and 10, with and without 5% mannitol in Milli Q water): clear solution
appearance ([1]; assumed 5 mg/mL AnxA1 in Milli Q water, 0.9% NaCl (154 mM), adjusted to pH 2, 4, 6 and 8): opaque
solubility thermodynamic ([2]; 0.9% NaCl (154 mM) in Milli Q water, saline or isotonic, 20 mg freeze-dried AnxA1 per mL 0.9% NaCl (154 mM) in Milli Q, neutral pH, over night at room temperature on rotation, spun down): ~170 µg/mL
solubility (concentration A280 as a function of pH) ([2]; AnxA1 3.3, 1.6 and 0.8 mg/mL in MiliQ water, 0.9% NaCl (154 mM), below pH 6.0): very low
solubility ([2]; saline at neutral pH around 7.3): poorly soluble
Substance: AMVSEFLKQAWFIENEEQEYVQTLKSSKGGPGSAVSPYPTFNPSSDV-NH2 [AnxA1]

Reference: US20240041977A1, “ANNEXIN A1 N-TERMINAL PEPTIDE FORMULATIONS AND METHODS” (ResoTher Pharma A/S, priority 2020, published 2024)
